Test results as given in ChEMBL document CHEMBL1201861, “Genomics of Drug Sensitity in Cancer screening data, Wellcome Trust Sanger Institute”.
pIC50: −log10 of the molar value.

Experiments:
COLO-792 = experiment: cells; format: functional, cell-based; conditions: Homo sapiens
Description: SANGER: Inhibition of human COLO-792 cell growth in a cell viability assay.

D-336MG = experiment: cells; format: functional, cell-based, Homo sapiens; conditions: Homo sapiens, D-336MG
Description: SANGER: Inhibition of human D-336MG cell growth in a cell viability assay.

D-392MG = experiment: cells; format: functional, cell-based; conditions: Homo sapiens
D-423MG = experiment: cells; format: functional, cell-based; conditions: Homo sapiens
Description: SANGER: Inhibition of human D-423MG cell growth in a cell viability assay.

D-566MG = experiment: cells; format: functional, cell-based; conditions: Homo sapiens
DoTc2-4510 = experiment: cells; format: functional, cell-based; conditions: Homo sapiens
EGI-1 = experiment: cells; format: functional, cell-based; conditions: Homo sapiens;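 further: cell viability readout used to gauge growth inhibition of EGI-1 cells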
Description: SANGER: Inhibition of human EGI-1 cell growth in a cell viability assay.

H-EMC-SS = experiment: cells; format: functional, cell-based; conditions: Homo sapiens
Description: SANGER: Inhibition of human H-EMC-SS cell growth in a cell viability assay.

HCC1419 = experiment: cells; format: functional, cell-based; conditions: Homo sapiens;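 further: growth inhibition of human HCC1419 cells, read out as cell viability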
Description: SANGER: Inhibition of human HCC1419 cell growth in a cell viability assay.

HT-1080 = experiment: cells; format: functional, cell-based; conditions: Homo sapiens
Description: SANGER: Inhibition of human HT-1080 cell growth in a cell viability assay.

HuO-3N1 = experiment: cells; format: functional, cell-based; conditions: Homo sapiens;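 further: cell viability readout used to measure how strongly compounds suppress proliferation of human HuO-3N1 cells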
Description: SANGER: Inhibition of human HuO-3N1 cell growth in a cell viability assay.

IGR-1 = experiment: cells; format: functional, cell-based; conditions: Homo sapiens;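 further: growth inhibition of human IGR-1 cells, read out with a cell viability assay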
Description: SANGER: Inhibition of human IGR-1 cell growth in a cell viability assay.

KNS-62 = experiment: cells; format: functional, cell-based; conditions: Homo sapiens;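 further: inhibition of cell growth, read out with a cell viability assay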
Description: SANGER: Inhibition of human KNS-62 cell growth in a cell viability assay.

KP-N-YN = experiment: cells; format: functional, cell-based; conditions: Homo sapiens;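 further: growth inhibition of KP-N-YN cells, read out with a cell viability assay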
Description: SANGER: Inhibition of human KP-N-YN cell growth in a cell viability assay.

MHH-ES-1 = experiment: cells; format: functional, cell-based; conditions: Homo sapiens
Description: SANGER: Inhibition of human MHH-ES-1 cell growth in a cell viability assay.

NCI-H2029 = experiment: cells; format: functional, cell-based; conditions: Homo sapiens;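 further: Read-out is a viability assay on the cultured cells, and IC50 is the concentration that suppresses cell growth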
Description: SANGER: Inhibition of human NCI-H2029 cell growth in a cell viability assay.

NCI-H2405 = experiment: cells; format: functional, cell-based; conditions: Homo sapiens;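 further: growth inhibition of the human cell line, read out with a cell viability assay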
Description: SANGER: Inhibition of human NCI-H2405 cell growth in a cell viability assay.

NCI-H358 = experiment: cells; format: functional, cell-based; conditions: Homo sapiens;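 further: growth inhibition of NCI-H358 human cells, read out with a cell viability assay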
Description: SANGER: Inhibition of human NCI-H358 cell growth in a cell viability assay.

NCI-H596 = experiment: cells; format: functional, cell-based; conditions: Homo sapiens;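 further: growth inhibition of NCI-H596 cells, read out with a cell viability assay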
Description: SANGER: Inhibition of human NCI-H596 cell growth in a cell viability assay.

NCI-H727 = experiment: cells; format: functional, cell-based; conditions: Homo sapiens;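 further: growth inhibition of human NCI-H727 cells, read out with a cell viability assay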
Description: SANGER: Inhibition of human NCI-H727 cell growth in a cell viability assay.

OC-314 = experiment: cells; format: functional, cell-based; conditions: Homo sapiens
Description: SANGER: Inhibition of human OC-314 cell growth in a cell viability assay.

OVCAR-8 = experiment: cells; format: functional, cell-based; conditions: Homo sapiens;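 further: growth inhibition of human OVCAR-8 cells, read out by a cell viability assay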
Description: SANGER: Inhibition of human OVCAR-8 cell growth in a cell viability assay.

RPMI-7951 = experiment: cells; format: functional, cell-based; conditions: Homo sapiens
Description: SANGER: Inhibition of human RPMI-7951 cell growth in a cell viability assay.

RVH-421 = experiment: cells; format: functional, cell-based; conditions: Homo sapiens
Description: SANGER: Inhibition of human RVH-421 cell growth in a cell viability assay.

SCC-25 = experiment: cells; format: functional, cell-based; conditions: Homo sapiens;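 further: growth inhibition of SCC-25 cells, measured with a cell viability assay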
Description: SANGER: Inhibition of human SCC-25 cell growth in a cell viability assay.

SNU-449 = experiment: cells; format: functional, cell-based; conditions: Homo sapiens
Description: SANGER: Inhibition of human SNU-449 cell growth in a cell viability assay.

8505C = experiment: cells; format: functional, cell-based; conditions: Homo sapiens
Description: SANGER: Inhibition of human 8505C cell growth in a cell viability assay.

A673 = experiment: cells; format: functional, cell-based; conditions: Homo sapiens;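 further: growth inhibition of human A673 cells, read out through a cell viability assay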
Description: SANGER: Inhibition of human A673 cell growth in a cell viability assay.

BHT-101 = experiment: cells; format: functional, cell-based; conditions: Homo sapiens
Description: SANGER: Inhibition of human BHT-101 cell growth in a cell viability assay.

BPH-1 = experiment: cells; format: functional, cell-based; conditions: Homo sapiens;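 further: cell viability assay measuring growth inhibition of human BPH-1 cells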
Description: SANGER: Inhibition of human BPH-1 cell growth in a cell viability assay.

BT-549 = experiment: cells; format: functional, cell-based; conditions: Homo sapiens
Description: SANGER: Inhibition of human BT-549 cell growth in a cell viability assay.

TI-73 = experiment: cells; format: functional, cell-based; conditions: Homo sapiens;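 further: cell viability assay measuring how much compounds suppress growth of the cultured cell line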
Description: SANGER: Inhibition of human TI-73 cell growth in a cell viability assay.

U-251 = experiment: cells; format: functional, cell-based; conditions: Homo sapiens;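 further: growth inhibition of human U-251 cells, read out through a cell viability assay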
Description: SANGER: Inhibition of human U251 cell growth in a cell viability assay.

ZR-75-30 = experiment: cells; format: functional, cell-based; conditions: Homo sapiens;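 further: growth inhibition of ZR-75-30 cells, measured with a cell viability readout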
Description: SANGER: Inhibition of human ZR-75-30 cell growth in a cell viability assay.

CFPAC-1 = experiment: cells; format: functional, cell-based; conditions: Homo sapiens;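 further: cell viability readout used to gauge suppression of CFPAC-1 cell proliferation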
Description: SANGER: Inhibition of human CFPAC-1 cell growth in a cell viability assay.

COLO-679 = experiment: cells; format: functional, cell-based; conditions: Homo sapiens
Description: SANGER: Inhibition of human COLO-679 cell growth in a cell viability assay.

DMS-153 = experiment: cells; format: functional, cell-based, Homo sapiens; conditions: Homo sapiens, DMS-153
Description: SANGER: Inhibition of human DMS-153 cell growth in a cell viability assay.

EW-12 = experiment: SANGER: Inhibition of human EW-12 cell growth in a cell viability assay.; format: functional, cell-based; conditions: Homo sapiens, EW-12
GDM-1 = experiment: cells; format: functional, cell-based, Homo sapiens; conditions: Homo sapiens, GDM-1; read-out: IC50;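 further: cell viability readout used to measure growth inhibition of human GDM-1 cells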
Description: SANGER: Inhibition of human GDM-1 cell growth in a cell viability assay.

IM-9 = experiment: SANGER: Inhibition of human IM-9 cell growth in a cell viability assay.; format: functional, cell-based; conditions: Homo sapiens, IM-9
MHH-CALL-2 = experiment: cells; format: functional, cell-based, Homo sapiens; conditions: Homo sapiens, MHH-CALL-2;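 further: growth inhibition of the cell line, read out in a cell viability assay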
Description: SANGER: Inhibition of human MHH-CALL-2 cell growth in a cell viability assay.

NCI-H748 = experiment: cells; format: functional, cell-based, Homo sapiens; conditions: Homo sapiens, NCI-H748;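 further: growth inhibition of NCI-H748 cells, measured by a cell viability assay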
Description: SANGER: Inhibition of human NCI-H748 cell growth in a cell viability assay.

OPM-2 = experiment: cells; format: functional, cell-based, Homo sapiens; conditions: Homo sapiens, OPM-2;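 further: growth of OPM-2 cells measured with a viability assay, IC50 for suppression of proliferation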
Description: SANGER: Inhibition of human OPM-2 cell growth in a cell viability assay.

RPMI 8402 = experiment: SANGER: Inhibition of human RPMI-8402 cell growth in a cell viability assay.; format: functional, cell-based; conditions: Homo sapiens, RPMI 8402
SKM-1 = experiment: SANGER: Inhibition of human SKM-1 cell growth in a cell viability assay.; format: functional, cell-based; conditions: Homo sapiens, SKM-1
SU-DHL-1 = experiment: SANGER: Inhibition of human SU-DHL-1 cell growth in a cell viability assay.; format: functional, cell-based; conditions: Homo sapiens, SU-DHL-1
UACC-812 = experiment: cells; format: functional, cell-based; conditions: Homo sapiens
Description: SANGER: Inhibition of human UACC-812 cell growth in a cell viability assay.

MOLT-13 = experiment: cells; format: functional, cell-based; conditions: Homo sapiens;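 further: IC50 for suppression of MOLT-13 cell growth, read out with a cell viability assay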
Description: SANGER: Inhibition of human MOLT-13 cell growth in a cell viability assay.

SMILES: O=C(NCCCNc1nc(Nc2cccc(NC(=O)N3CCCC3)c2)ncc1I)c1cccs1 [BX-795]
- pIC50 (COLO-792): < 5.30
- pIC50 (D-336MG): 5.37
- pIC50 (D-392MG): < 5.30
- pIC50 (D-423MG): 5.79
- pIC50 (D-566MG): 5.88
- pIC50 (DoTc2-4510): < 5.30
- pIC50 (EGI-1): < 5.30
- pIC50 (H-EMC-SS): < 5.30
- pIC50 (HCC1419): < 5.30
- pIC50 (HT-1080): < 5.30
- pIC50 (HuO-3N1): 5.58
- pIC50 (IGR-1): < 5.30
- pIC50 (KNS-62): < 5.30
- pIC50 (KP-N-YN): < 5.30
- pIC50 (MHH-ES-1): 5.56
- pIC50 (NCI-H2029): < 5.30
- pIC50 (NCI-H2405): 5.33
- pIC50 (NCI-H358): < 5.30
- pIC50 (NCI-H596): < 5.30
- pIC50 (NCI-H727): < 5.30
- pIC50 (OC-314): 5.52
- pIC50 (OVCAR-8): < 5.30
- pIC50 (RPMI-7951): 5.50
- pIC50 (RVH-421): < 5.30
- pIC50 (SCC-25): < 5.30
- pIC50 (SNU-449): 5.30
- pIC50 (8505C): 5.42
- pIC50 (A673): < 5.30
- pIC50 (BHT-101): 5.80
- pIC50 (BPH-1): 5.50
- pIC50 (BT-549): 5.35
- pIC50 (TI-73): 5.67
- pIC50 (U-251): < 5.30
- pIC50 (ZR-75-30): < 5.30
- pIC50 (CFPAC-1): < 5.30
- pIC50 (COLO-679): < 5.30

SMILES: C[C@@H](Oc1cc(-c2cnn(C3CCNCC3)c2)cnc1N)c1c(Cl)ccc(F)c1Cl [CRIZOTINIB]
- pIC50 (D-336MG): < 5.70
- pIC50 (DMS-153): < 5.70
- pIC50 (EW-12): < 5.70
- pIC50 (GDM-1): < 5.70
- pIC50 (IM-9): < 5.70
- pIC50 (MHH-CALL-2): 6.17
- pIC50 (NCI-H748): < 5.70
- pIC50 (OPM-2): < 5.70
- pIC50 (RPMI 8402): < 5.70
- pIC50 (SKM-1): < 5.70
- pIC50 (SU-DHL-1): 6.47
- pIC50 (UACC-812): < 5.70

SMILES: Nc1ccccc1NC(=O)c1ccc(CNC(=O)OCc2cccnc2)cc1 [ENTINOSTAT]
- pIC50 (D-336MG): < 5.30
- pIC50 (D-392MG): < 5.30
- pIC50 (DMS-153): 6.01
- pIC50 (EW-12): < 5.30
- pIC50 (GDM-1): 6.05
- pIC50 (IM-9): < 5.30
- pIC50 (MHH-CALL-2): 5.90
- pIC50 (MOLT-13): 6.47
- pIC50 (NCI-H748): 6.99
- pIC50 (OPM-2): 6.38
- pIC50 (RPMI 8402): 6.41
- pIC50 (SKM-1): < 5.30
- pIC50 (SU-DHL-1): 6.18
- pIC50 (UACC-812): < 5.30
